Experimental data as given in ChEMBL document CHEMBL1681783 (Bioorg Med Chem, 2011).
pIC50: −log10 of the molar value.

Experiments:
[1] = biological target: T1, Squalene synthase (Homo sapiens, UniProt P37268)
T1 sequence (P37268 whole entry): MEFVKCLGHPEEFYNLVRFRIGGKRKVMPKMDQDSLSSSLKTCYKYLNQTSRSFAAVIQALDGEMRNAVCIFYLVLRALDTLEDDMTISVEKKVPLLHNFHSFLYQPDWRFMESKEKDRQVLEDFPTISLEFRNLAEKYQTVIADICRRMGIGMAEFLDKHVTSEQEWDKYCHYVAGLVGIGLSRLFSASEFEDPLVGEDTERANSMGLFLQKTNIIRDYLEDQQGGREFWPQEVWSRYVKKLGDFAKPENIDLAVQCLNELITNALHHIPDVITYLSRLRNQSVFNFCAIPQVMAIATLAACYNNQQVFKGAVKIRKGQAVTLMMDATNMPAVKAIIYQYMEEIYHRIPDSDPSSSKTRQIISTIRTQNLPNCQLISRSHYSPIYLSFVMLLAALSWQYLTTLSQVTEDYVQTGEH
Description: Inhibition of squalene synthase

[2] = species on record: Rattus norvegicus; experiment: Inhibition of cholesterol synthesis in rat hepatic cells; assay type: functional, cell-based
[3] = Lipophilicity, log P of the compound; assay type: physicochemical; settings: octanol/water

SMILES | pIC50 [1] | pIC50 [2] | logP [3]
COC(=O)CCC(=O)N(CC(C)(C)C)c1ccc(Cl)cc1C(O)c1ccccc1Cl (configuration not stated) | 5.77 | – | –
CC(C)(C)CN(C(=O)CCC(=O)O)c1ccc(Cl)cc1C(O)c1ccccc1Cl (configuration not stated) | 5.19 | – | –
CC(C)(C)CN(C(=O)CCC(=O)N1CCC(C(=O)O)CC1)c1ccc(Cl)cc1C(O)c1ccccc1Cl (configuration not stated) | 6.89 | 6.60 | –
CN(C)C(=O)C1CCN(C(=O)CCC(=O)N(CC(C)(C)C)c2ccc(Cl)cc2C(O)c2ccccc2Cl)CC1 (configuration not stated) | 7.01 | – | –
CNC(=O)C1CCN(C(=O)CCC(=O)N(CC(C)(C)C)c2ccc(Cl)cc2C(O)c2ccccc2Cl)CC1 (configuration not stated) | 8.89 | 6.05 | –
CC(C)(C)CN(C(=O)CCC(=O)N1CCC(C(N)=O)CC1)c1ccc(Cl)cc1C(O)c1ccccc1Cl (configuration not stated) | 6.55 | – | –
CCNC(=O)C1CCN(C(=O)CCC(=O)N(CC(C)(C)C)c2ccc(Cl)cc2C(O)c2ccccc2Cl)CC1 (configuration not stated) | 8.62 | – | –
CC(C)NC(=O)C1CCN(C(=O)CCC(=O)N(CC(C)(C)C)c2ccc(Cl)cc2C(O)c2ccccc2Cl)CC1 (configuration not stated) | 8.43 | 5.80 | –
CCCCNC(=O)C1CCN(C(=O)CCC(=O)N(CC(C)(C)C)c2ccc(Cl)cc2C(O)c2ccccc2Cl)CC1 (configuration not stated) | 8.80 | 5.70 | –
CCOC(=O)C1CCCN(C(=O)CCC(=O)N(CC(C)(C)C)c2ccc(Cl)cc2C(O)c2ccccc2Cl)C1 (configuration not stated) | 6.39 | – | –
CC(C)(C)CN(C(=O)CCC(=O)N1CCCC(C(=O)O)C1)c1ccc(Cl)cc1[C@H](O)c1ccccc1Cl (some centres not stated) | 7.70 | 6.57 | 2.98
CC(C)(C)CN(C(=O)CCC(=O)NCC1CCCCC1)c1ccc(Cl)cc1C(O)c1ccccc1Cl (configuration not stated) | 6.66 | 5.59 | –
CCOC(=O)N1CCN(C(=O)CCC(=O)N(CC(C)(C)C)c2ccc(Cl)cc2C(O)c2ccccc2Cl)CC1 (configuration not stated) | 8.64 | – | –
CC(C)(C)CN(C(=O)CCC(=O)N1CCN(C(=O)OCc2ccccc2)CC1)c1ccc(Cl)cc1C(O)c1ccccc1Cl (configuration not stated) | 8.96 | – | –
CC(C)(C)CN(C(=O)CCC(=O)N1CCNCC1)c1ccc(Cl)cc1C(O)c1ccccc1Cl (configuration not stated) | 5.68 | – | –
CC(C)(C)CN(C(=O)CCC(=O)N1CCN(S(C)(=O)=O)CC1)c1ccc(Cl)cc1C(O)c1ccccc1Cl (configuration not stated) | 6.59 | – | –
CCOC(=O)CN1CCN(C(=O)CCC(=O)N(CC(C)(C)C)c2ccc(Cl)cc2C(O)c2ccccc2Cl)CC1 (configuration not stated) | 8.10 | 5.85 | –
CCOC(=O)C1CCN(C(=O)CCCC(=O)N(CC(C)(C)C)c2ccc(Cl)cc2C(O)c2ccccc2Cl)CC1 (configuration not stated) | < 5.22 | – | –
CCOC(=O)C1CCN(C(=O)CC(=O)N(CC(C)(C)C)c2ccc(Cl)cc2C(O)c2ccccc2Cl)CC1 (configuration not stated) | < 6.22 | – | –
CCOC(=O)C1CCN(C(=O)CCC(=O)N(C)c2ccc(Cl)cc2C(O)c2ccccc2Cl)CC1 (configuration not stated) | 4.68 | – | –
CCCN(C(=O)CCC(=O)N1CCC(C(=O)OCC)CC1)c1ccc(Cl)cc1C(O)c1ccccc1Cl (configuration not stated) | 6.22 | – | –

SMILES | pIC50 [1] | pIC50 [2] | logP [3]
CCOC(=O)C1CCN(C(=O)CCC(=O)N(CC(C)(C)C)c2ccc(Cl)cc2Cc2ccccc2Cl)CC1 | 6.19 | – | –
CCOC(=O)C1CCN(C(=O)CCC(=O)N(CC(C)(C)C)c2ccc(Cl)cc2CO)CC1 | < 5.22 | – | –
CCOC(=O)C1CCN(C(=O)CCC(=O)N(CC(C)(C)C)c2ccc(Cl)cc2C(O)c2ccccc2)CC1 (configuration not stated) | 6.11 | – | –
CCOC(=O)C1CCN(C(=O)CCC(=O)N(CC(C)(C)C)c2ccc(Cl)cc2C(O)c2ccccc2F)CC1 (configuration not stated) | 9.35 | – | –
CCOC(=O)C1CCN(C(=O)CCC(=O)N(CC(C)(C)C)c2ccc(Cl)cc2C(O)c2cccc(F)c2Cl)CC1 (configuration not stated) | 8.14 | – | –
CCOC(=O)C1CCN(C(=O)CCC(=O)N(CC(C)(C)C)c2ccc(Cl)cc2C(O)c2ccc(F)cc2Cl)CC1 (configuration not stated) | 8.70 | – | –
CCOC(=O)C1CCN(C(=O)CCC(=O)N(CC(C)(C)C)c2ccc(Cl)cc2C(O)c2cc(F)ccc2Cl)CC1 (configuration not stated) | < 6.22 | – | –
CCOC(=O)C1CCN(C(=O)CCC(=O)N(CC(C)(C)C)c2ccc(Cl)cc2C(O)c2ccccc2OC)CC1 (configuration not stated) | 8.96 | – | –
CCOC(=O)C1CCN(C(=O)CCC(=O)N(CC(C)(C)C)c2ccc(Cl)cc2C(O)c2cccc(OC)c2)CC1 (configuration not stated) | 6.68 | – | –
CCOC(=O)C1CCN(C(=O)CCC(=O)N(CC(C)(C)C)c2ccc(Cl)cc2C(O)c2ccccc2OCC)CC1 (configuration not stated) | 6.39 | – | –
CCOC(=O)C1CCN(C(=O)CCC(=O)N(CC(C)(C)C)c2ccc(Cl)cc2C(O)c2cccc(OC)c2OC)CC1 (configuration not stated) | 8.96 | – | –
CCOC(=O)C1CCN(C(=O)CCC(=O)N(CC(C)(C)C)c2ccc(Cl)cc2C(O)c2cccc3c2OCCO3)CC1 (configuration not stated) | 8.00 | – | –
CCOC(=O)C1CCCN(C(=O)CCC(=O)N(CC(C)(C)C)c2ccc(Cl)cc2C(O)c2ccccc2F)C1 (configuration not stated) | < 6.22 | – | –
CCOC(=O)C1CCCN(C(=O)CCC(=O)N(CC(C)(C)C)c2ccc(Cl)cc2C(O)c2cccc(F)c2Cl)C1 (configuration not stated) | 7.55 | – | –
CCOC(=O)C1CCCN(C(=O)CCC(=O)N(CC(C)(C)C)c2ccc(Cl)cc2C(O)c2ccc(F)cc2Cl)C1 (configuration not stated) | < 6.22 | – | –
CCOC(=O)C1CCCN(C(=O)CCC(=O)N(CC(C)(C)C)c2ccc(Cl)cc2C(O)c2cc(F)ccc2Cl)C1 (configuration not stated) | < 6.22 | – | –
CCOC(=O)C1CCCN(C(=O)CCC(=O)N(CC(C)(C)C)c2ccc(Cl)cc2C(O)c2ccccc2OC)C1 (configuration not stated) | 8.59 | – | –
CCOC(=O)C1CCCN(C(=O)CCC(=O)N(CC(C)(C)C)c2ccc(Cl)cc2C(O)c2cccc(OC)c2)C1 (configuration not stated) | < 6.22 | – | –
CCOC(=O)C1CCCN(C(=O)CCC(=O)N(CC(C)(C)C)c2ccc(Cl)cc2C(O)c2ccccc2OCC)C1 (configuration not stated) | < 6.22 | – | –
CCOC(=O)C1CCCN(C(=O)CCC(=O)N(CC(C)(C)C)c2ccc(Cl)cc2C(O)c2cccc(OC)c2OC)C1 (configuration not stated) | 8.89 | – | –
CCOC(=O)C1CCCN(C(=O)CCC(=O)N(CC(C)(C)C)c2ccc(Cl)cc2C(O)c2cccc3c2OCCO3)C1 (configuration not stated) | 7.89 | – | –

SMILES | pIC50 [1] | pIC50 [2] | logP [3]
CC(C)(C)CN(C(=O)CCC(=O)N1CCC(C(=O)O)CC1)c1ccc(Cl)cc1C(O)c1ccccc1F (configuration not stated) | 5.77 | < 5.00 | –
CC(C)(C)CN(C(=O)CCC(=O)N1CCC(C(=O)O)CC1)c1ccc(Cl)cc1C(O)c1cccc(F)c1Cl (configuration not stated) | 7.77 | 6.04 | –
CC(C)(C)CN(C(=O)CCC(=O)N1CCC(C(=O)O)CC1)c1ccc(Cl)cc1C(O)c1ccc(F)cc1Cl (configuration not stated) | < 6.22 | – | –
CC(C)(C)CN(C(=O)CCC(=O)N1CCC(C(=O)O)CC1)c1ccc(Cl)cc1C(O)c1cc(F)ccc1Cl (configuration not stated) | < 6.22 | – | –
COc1ccccc1C(O)c1cc(Cl)ccc1N(CC(C)(C)C)C(=O)CCC(=O)N1CCC(C(=O)O)CC1 (configuration not stated) | 8.77 | 6.22 | –
COc1cccc(C(O)c2cc(Cl)ccc2N(CC(C)(C)C)C(=O)CCC(=O)N2CCC(C(=O)O)CC2)c1 (configuration not stated) | < 6.22 | – | –
CCOc1ccccc1C(O)c1cc(Cl)ccc1N(CC(C)(C)C)C(=O)CCC(=O)N1CCC(C(=O)O)CC1 (configuration not stated) | < 6.22 | – | –
COc1cccc(C(O)c2cc(Cl)ccc2N(CC(C)(C)C)C(=O)CCC(=O)N2CCC(C(=O)O)CC2)c1OC (configuration not stated) | 8.55 | 5.80 | –
CC(C)(C)CN(C(=O)CCC(=O)N1CCC(C(=O)O)CC1)c1ccc(Cl)cc1C(O)c1cccc2c1OCCO2 (configuration not stated) | 8.15 | 6.64 | –
CC(C)(C)CN(C(=O)CCC(=O)N1CCCC(C(=O)O)C1)c1ccc(Cl)cc1C(O)c1ccccc1 (configuration not stated) | – | – | 2.42
CC(C)(C)CN(C(=O)CCC(=O)N1CCCC(C(=O)O)C1)c1ccc(Cl)cc1C(O)c1ccccc1F (configuration not stated) | 6.54 | 6.70 | 2.52
CC(C)(C)CN(C(=O)CCC(=O)N1CCCC(C(=O)O)C1)c1ccc(Cl)cc1C(O)c1cccc(F)c1Cl (configuration not stated) | 8.08 | 5.89 | 3
CC(C)(C)CN(C(=O)CCC(=O)N1CCCC(C(=O)O)C1)c1ccc(Cl)cc1C(O)c1ccc(F)cc1Cl (configuration not stated) | 6.72 | – | 3.28
CC(C)(C)CN(C(=O)CCC(=O)N1CCCC(C(=O)O)C1)c1ccc(Cl)cc1C(O)c1cc(F)ccc1Cl (configuration not stated) | < 6.22 | – | 2.8
COc1ccccc1C(O)c1cc(Cl)ccc1N(CC(C)(C)C)C(=O)CCC(=O)N1CCCC(C(=O)O)C1 (configuration not stated) | – | 7.08 | 2.81
COc1cccc(C(O)c2cc(Cl)ccc2N(CC(C)(C)C)C(=O)CCC(=O)N2CCCC(C(=O)O)C2)c1 (configuration not stated) | < 6.22 | – | 2.35
CCOc1ccccc1C(O)c1cc(Cl)ccc1N(CC(C)(C)C)C(=O)CCC(=O)N1CCCC(C(=O)O)C1 (configuration not stated) | < 6.22 | – | 3.32
COc1cccc(C(O)c2cc(Cl)ccc2N(CC(C)(C)C)C(=O)CCC(=O)N2CCCC(C(=O)O)C2)c1OC (configuration not stated) | 8.70 | 5.82 | 2.25
CC(C)(C)CN(C(=O)CCC(=O)N1CCCC(C(=O)O)C1)c1ccc(Cl)cc1C(O)c1cccc2c1OCCO2 (configuration not stated) | 8.17 | 6.77 | 1.87
